Laboratory results from patent publication US20260240746A1, “TOPICAL COMPOSITION AND IMPLEMENTATIONS THEREOF” (ULTRAMARINE & PIGMENTS LIMITED, priority 2022, published 2026).
Where “and” joins values, the source holds several entries; their conditions need not be identical. Equal entries are not always repeated.

Tests used:
[1] = tested on: Murine fibroblast cell line (3T3); experiment: Skin reactivity analysis by agar diffusion assay; assay type: cell-based; conditions: 3T3 cells, 24 hours exposure
Procedure: Skin reactivity analysis was carried out for the topical composition samples by agar diffusion assay. Murine fibroblast cell line (3T3) cells were seeded onto 60 mm tissue culture grade plastic Petri dishes and incubated for 24 hrs. After 24 hrs the media was replaced by a layer of 1% agar. Stock solution of 100 mg/ml of reference standard was prepared in sterile phosphate buffered saline (PBS) and tested at 10% (100 mg/ml). 5 μl of reference standard was loaded on to 6 mm sterile Whatman filter paper discs which were placed on the agar layer. Neat topical composition sample was used for testing. Approximately 5 μl of the topical composition sample was loaded on to 6 mm sterile Whatman filter paper discs which were placed on the agar layer. Sterile PBS was used as the negative control. Positive and negative controls were run concurrently. After an exposure of 24 hours to the samples, the assays were terminated by the addition of MTT (3-[4,5-dimethylthiazol-2-yl]-2,5-diphenyltetrazolium bromide; Thiazolyl blue) (Sigma M 5655) and incubated overnight in the dark. The following day, the cells were observed under the microscope and checked for the presence of crystals under the area of sample loading. The sample causing cell death was indicated by a clear zone of inhibition. The colour was allowed to develop overnight and the zone of inhibition was measured. The readings of the test samples were then scored based on comparisons with the positive and negative controls in compliance with the USP (U.S. Pharmacopoeia) grades for the agar diffusion test (Table 2).

skin = experiment: Moisturization analysis (Scalar moisture checker); assay type: in vivo, human; conditions: skin of the hand, 20° C., 60% RH
Procedure: The topical composition samples of the present disclosure and the commercial silicones (cyclopentasiloxane, dimethicone) were applied on a skin patch and the moisture content was analyzed for a duration of 8 hrs. The test was conducted on 3 volunteers. Three areas were marked on the skin of the hand. The composition was applied by rubbing in a circular direction for a period of two minute on the marked areas. The third area was kept blank. The readings were taken after five minutes of drying by Scaler Moisture Checker. The temperature of the room was kept at 20° C. and humidity was maintained at 60% RH. The moisture analysis was done using moisture checker from Scalar Impressive works. Scalar moisture checker works on the principle of capacitance to measure the permittivity of skin. […] The checker was pressed on the desired area perpendicularly to the skin and was held for a few seconds. […] Moisture level Content of 45.1 and above represent a very high moisture level, when moisture level is between 39.1-45.0 it is high normal, between 27.1-39.0 is mid normal, between 22.1-27.0 is low normal, between 12.1 to 22.0 is low and below 12.1 is very low moisture level. A graph of time after application and the moisture level content was plotted for each composition.

Structure (SMILES) | Reactivity [1] | Zone of Inhibition, mean per experiment ([1]; sample neat (100% concentration), Expt 1-3, sulphate) | Zone of Inhibition, individual readings ([1]; sample neat (100% concentration), reference standard 10% (100 mg/ml), Expt 1-3, sulphate) | Zone of Inhibition, Mean ± SD of three independent experiments ([1]; sample neat (100% concentration), listed as positive control, sulphate) [cm] | Zone of Inhibition, Mean ± SD of three independent experiments ([1]; sample neat (100% concentration), sulphate) [cm] | moisture content retained until 8 hours after application (skin; 8 hours after application) [%] | moisture content after application (skin; after application) [%]
CCCCCCCCCCCCOS(=O)(=O)[O-].[Na+] [Positive Control, sodium dodecyl sulphate] | Severe (Zone extends greater than 1.0 cm beyond specimen) | 1.08 cm and 1.14 cm and 1.20 cm | 1.05 cm and 1.03 cm and 1.17 cm and 1.13 cm and 1.07 cm and 1.23 cm and 1.20 cm and 1.18 cm and 1.22 cm | 1.14±0.06 | 1.14 ± 0.06 | – | –
C[Si]1(C)O[Si](C)(C)O[Si](C)(C)O[Si](C)(C)O[Si](C)(C)O1 [Cyclopentasiloxane, cyclopentasiloxane] | – | – | – | – | – | 21 | 23
